Assays:
Tac/3S chimeric protein = assay: Endocytosis of Tac/3S chimeric protein in COS-7 cells after pretreatment with inhibitors; format: cell-based; conditions: for endocytosis of Tac/3S chimeric protein: COS-7, 100 μg/ml ConA, 80 μM Dynasore, 1 μM Go6976, 1 μM K252a, 1 μM Vinblastine, 30 minutes pretreatment
Description: Each of plasmid DNAs encoding Tac chimeric proteins illustrated in FIG. 2 was expressed in COS-7 cell line to induce endocytosis. To quantify endocytosis percentage, the following method was used. First, plasmid DNA was transfected into COS-7 cell line, and next day, cells were suspended in DMED supplemented with 10% FBS, and seeded onto an 8-well slide glass (Thermo, 154534) to 50% confluency. Next day, to block endocytosis, cells were transferred at 4° C. and left for 30 minutes. Anti-Tac (BD BIOSCIENCES, 347640) antibody was diluted in DMEM supplemented with 10% FBS at a ratio of 1:10, and treated at 4° C. for 30 minutes. The cells were washed with medium three times. To induce endocytosis again, the cells were transferred at 5% CO2 and 37° C., and left for different time periods. The cells were fixed in 4% paraformaldehyde for 45 minutes at room temperature. To detect cell surface anti-Tac antibody, anti-mouse IgG-ALEXA FLUOR 488 (INVITROGEN, A-11001) was diluted with PBS containing 3% normal goat serum (Vector, S-1000) at a ratio of 1:500, and treated at room temperature for 1 hour. Then, the cells were washed with PBST for 5 minutes three times. For permeablization and blocking, the cells were treated with PBST containing 3% normal goat serum at room temperature for 1 hour. Next, to detect intracellular Tac, anti-mouse IgG-ALEXA FLUOR 568 (INVITROGEN, A11061) was diluted with PBST containing 3% normal goat serum at a ratio of 1:500, and treated at room temperature for 1 hour. The cells were washed with PBST three times, and mounted in Mounting Medium with DAPI (Vector, H-1200). Next day, the sample was examined by fluorescence microscopy (Olympus IX2-UCB). For treatment of inhibitors, 100 μg/ml ConA (SIGMA, C0412), 80 μM Dynasore (SIGMA, D7693), 1 μM Go6976 (CALBIOCHEM, 365250), 1 μM K252a (INVITROGEN, PHZ1131) and 1 μM Vinblastine (SIGMA, V1377) were pretreated at 5% CO2 and 37° C. for 30 minutes, before endocytosis assay.

COS-7 cells = assay: Endocytosis of Tac chimeric proteins expressed in COS-7 cells, fluorescence microscopy; format: cell-based
Description: To quantify endocytosis percentage, the following method was used. First, plasmid DNA was transfected into COS-7 cell line, and next day, cells were suspended in DMED supplemented with 10% FBS, and seeded onto an 8-well slide glass (Thermo, 154534) to 50% confluency. Next day, to block endocytosis, cells were transferred at 4° C. and left for 30 minutes. Anti-Tac (BD BIOSCIENCES, 347640) antibody was diluted in DMEM supplemented with 10% FBS at a ratio of 1:10, and treated at 4° C. for 30 minutes. The cells were washed with medium three times. To induce endocytosis again, the cells were transferred at 5% CO2 and 37° C., and left for different time periods. The cells were fixed in 4% paraformaldehyde for 45 minutes at room temperature. […] Next day, the sample was examined by fluorescence microscopy (Olympus IX2-UCB). […] To quantify endocytosis of Tac chimeric proteins expressed in COS-7 cells over time, the following Equation was used. […] As such, green fluorescence intensity indicates the amount of cell surface Tac, and red fluorescence intensity signifies those of endocytosed Tac plus partial cell surface Tac. […] Partially detected surface Tac by anti-mouse IgG-ALEXA FLUOR 568 was measured by comparing fluorescence intensity between green and red at 0 min in which no endocytosis occurred. Red fluorescence intensity was 0.429-fold or green fluorescence intensity at 0 min, which was defined as α. […]

Question: How did the “endocytosis of Tac/3S chimeric protein” value (Tac/3S chimeric protein) turn out when `O=C(N/N=C/c1ccc(O)c(O)c1)c1cc2ccccc2cc1O` [Dynasore] was run?
Answer: The value was “inhibited”.

Question: With `Cn1c2ccccc2c2c3c(c4c5ccccc5n(CCC#N)c4c21)CNC3=O` [Go6976] as the molecule, how does the “endocytosis of Tac/3S chimeric protein” value (Tac/3S chimeric protein) read?
Answer: The value was “inhibited”.

Question: `COC(=O)[C@@]1(O)C[C@H]2O[C@]1(C)n1c3ccccc3c3c4c(c5c6ccccc6n2c5c31)C(=O)NC4` [K252a] was tested. Which “endocytosis of Tac/3S chimeric protein” value (Tac/3S chimeric protein) did it give?
Answer: The value was “not inhibited”.

Question: With `CC[C@]1(O)C[C@@H]2CN(CCc3c([nH]c4ccccc34)[C@@](C(=O)OC)(c3cc4c(cc3OC)N(C)[C@H]3[C@@](O)(C(=O)OC)[C@H](OC(C)=O)[C@]5(CC)C=CCN6CC[C@]43[C@@H]65)C2)C1` [Vinblastine] as the molecule, how does the “transportation of Tac/3S protein to the perinuclear region” value (Tac/3S chimeric protein; COS-7, 1 μM Vinblastine) read?
Answer: Its value is “blocked”.

Question: What about the “endocytosis of Tac/3S chimeric protein” value (Tac/3S chimeric protein) of the same molecule?
Answer: Its value is “not inhibited”.

Question: Which “endocytosis of Tac/3S chimeric protein” value (Tac/3S chimeric protein) does the source give for Concannavalin A [ConA] here?
Answer: Its value is “inhibited”.

B1: Tac/3S: fusion protein of Tac and 3S polypeptide (protein)
chain: ELCDDDPPEIPHATFKAMAYKEGTMLNCECKRGFRRIKSGSLYMLCTGNSSHSSWDNQCQCTSSATRNTTKQVTPQPEEQKERKTTEMQSPMQPVDQASLPGHCREPPPWENEATERIYHFVVGQMVYYQCVQGYRALHRGPAESVCKMTHGKTRWTQPQLICTGEMETSQFPGEEKPQASPEGRPESETSCLVTTTDFQIQTEMAATMETSIFTTEYQKCVAPYPSLLSSEDNA
Question: B1 was tested. Which “subcellular localization (colocalization test)” value (COS-7 cells) did it give?
Answer: Its value is “partially merged with ER tracker”.

Reference: patent US9617304B2, “Pharmaceutical composition containing an endocytic motif and protein transduction domains for preventing or treating cancer” (Korea Research Institute Of Bioscience And Biotechnology, priority 2011, dated 2017)
